Test: recombinant UMI read abundance after kanamycin selection (control-corrected) (log10(CPM+1)); higher = more efficient recombination; extreme values may be limits of the assay; sequences stand for … in AGTGCAGAGAAAATCGGCCAGTTTTCTCTGCCTGCAGTCCGCATGCCGTGGGACCCCTTGGGTTCTAACCTGTTGCCTAGATTTATGCAGCGGACTGCCTTTCTCCCAAAGTGATAAACCGG…AGGTTGGTTTCACT; site = the 11-nt donor
Description: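 Pooled E. coli donor-specificity screen for the IS621 bridge recombinase. Each library member carries a reprogrammed 11-nt donor and a full-length LE bridge RNA expressed in cis from the natural promoter, with a paired donor-binding loop (8-nt LDG + 4-nt RDG) and a target-binding loop fixed to T5. It is co-electroporated with a T5 target plasmid; recombinase is induced with 0.07 mM IPTG and recombinants are selected on kanamycin. UMIs are counted as CPM, averaged over two biological replicates and corrected by the unselected control. Molecule = full bridge RNA written as DNA, built from the T5 scaffold: LDG = donor specificity nt 1-8, RDG = reverse complement of nt 8-11.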
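Further: IS621 bridge recombinase in Escherichia coli cells against a fixed T5 target plasmid.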

Sequence	recombinant UMI read abundance (log10)
ACAGCATCATGGACCGGTTTTCCCGGTAATCCGTATTTGCG (site ACAGCATCTCG)	2.33
ACAGCATCATGGACCGGTTTTCCCGGTAATCCGTATTTGCG (site ACAGTATCTTG)	0
ACAGCTTCATGGACCGGTTTTCCCGGTAATCCGTATTTGCA (site ACAGCTTCTTG)	2.59
ACAGCTTCATGGACCGGTTTTCCCGGTAATCCGTATTTGCA (site ACAGTATCTTG)	2.16
ACAGTACCATGGACCGGTTTTCCCGGTAATCCGTATTTGAA (site ACAGTACCTTT)	0.501
ACAGTACCATGGACCGGTTTTCCCGGTAATCCGTATTTGAA (site ACAGTATCTTG)	0
ACAGTATCATGGACCGGTTTTCCCGGTAATCCGTATTTGCA (site AAAATATCTTG)	1.79
ACAGTATCATGGACCGGTTTTCCCGGTAATCCGTATTTGCA (site AAAGAATCTTG)	1.57
ACAGTATCATGGACCGGTTTTCCCGGTAATCCGTATTTGCA (site AAAGTAACTTG)	0.587
ACAGTATCATGGACCGGTTTTCCCGGTAATCCGTATTTGCA (site AAAGTATCTAG)	0
ACAGTATCATGGACCGGTTTTCCCGGTAATCCGTATTTGCA (site AAAGTATCTTC)	0.00296
ACAGTATCATGGACCGGTTTTCCCGGTAATCCGTATTTGCA (site AAAGTATCTTG)	2.1
ACAGTATCATGGACCGGTTTTCCCGGTAATCCGTATTTGCA (site AAAGTCTCTTG)	0.0144
ACAGTATCATGGACCGGTTTTCCCGGTAATCCGTATTTGCA (site AACGTATCTTG)	2.46
ACAGTATCATGGACCGGTTTTCCCGGTAATCCGTATTTGCA (site ACAAAATCTTG)	0.724
ACAGTATCATGGACCGGTTTTCCCGGTAATCCGTATTTGCA (site ACAATAACTTG)	0
ACAGTATCATGGACCGGTTTTCCCGGTAATCCGTATTTGCA (site ACAATATCTAG)	0.00607
ACAGTATCATGGACCGGTTTTCCCGGTAATCCGTATTTGCA (site ACAATATCTTC)	0.00345
ACAGTATCATGGACCGGTTTTCCCGGTAATCCGTATTTGCA (site ACAATATCTTG)	2.8
ACAGTATCATGGACCGGTTTTCCCGGTAATCCGTATTTGCA (site ACAATCTCTTG)	0
ACAGTATCATGGACCGGTTTTCCCGGTAATCCGTATTTGCA (site ACACCATCTTG)	0.786
ACAGTATCATGGACCGGTTTTCCCGGTAATCCGTATTTGCA (site ACACTAGCTTG)	0.00526
ACAGTATCATGGACCGGTTTTCCCGGTAATCCGTATTTGCA (site ACACTATCTCG)	0
ACAGTATCATGGACCGGTTTTCCCGGTAATCCGTATTTGCA (site ACACTATCTTA)	0
ACAGTATCATGGACCGGTTTTCCCGGTAATCCGTATTTGCA (site ACACTATCTTG)	1.61
ACAGTATCATGGACCGGTTTTCCCGGTAATCCGTATTTGCA (site ACACTTTCTTG)	0

Sequence	recombinant UMI read abundance (log10)
ACAGTATCATGGACCGGTTTTCCCGGTAATCCGTATTTGCA (site ACAGAAACTTG)	0
ACAGTATCATGGACCGGTTTTCCCGGTAATCCGTATTTGCA (site ACAGAATCTAG)	0
ACAGTATCATGGACCGGTTTTCCCGGTAATCCGTATTTGCA (site ACAGAATCTTC)	0.287
ACAGTATCATGGACCGGTTTTCCCGGTAATCCGTATTTGCA (site ACAGAATCTTG)	2.53
ACAGTATCATGGACCGGTTTTCCCGGTAATCCGTATTTGCA (site ACAGACTCTTG)	1.68
ACAGTATCATGGACCGGTTTTCCCGGTAATCCGTATTTGCA (site ACAGCAGCTTG)	0.00322
ACAGTATCATGGACCGGTTTTCCCGGTAATCCGTATTTGCA (site ACAGCATCTCG)	0.00554
ACAGTATCATGGACCGGTTTTCCCGGTAATCCGTATTTGCA (site ACAGCATCTTA)	0.00439
ACAGTATCATGGACCGGTTTTCCCGGTAATCCGTATTTGCA (site ACAGCATCTTG)	1.64
ACAGTATCATGGACCGGTTTTCCCGGTAATCCGTATTTGCA (site ACAGCTTCTTG)	0
ACAGTATCATGGACCGGTTTTCCCGGTAATCCGTATTTGCA (site ACAGGACCTTG)	0
ACAGTATCATGGACCGGTTTTCCCGGTAATCCGTATTTGCA (site ACAGGATCTGG)	0
ACAGTATCATGGACCGGTTTTCCCGGTAATCCGTATTTGCA (site ACAGGATCTTG)	1.01
ACAGTATCATGGACCGGTTTTCCCGGTAATCCGTATTTGCA (site ACAGGATCTTT)	0
ACAGTATCATGGACCGGTTTTCCCGGTAATCCGTATTTGCA (site ACAGGGTCTTG)	1.17
ACAGTATCATGGACCGGTTTTCCCGGTAATCCGTATTTGCA (site ACAGTAACTAG)	0
ACAGTATCATGGACCGGTTTTCCCGGTAATCCGTATTTGCA (site ACAGTAACTTC)	0.0177
ACAGTATCATGGACCGGTTTTCCCGGTAATCCGTATTTGCA (site ACAGTAACTTG)	1.55
ACAGTATCATGGACCGGTTTTCCCGGTAATCCGTATTTGCA (site ACAGTACCTGG)	0
ACAGTATCATGGACCGGTTTTCCCGGTAATCCGTATTTGCA (site ACAGTACCTTG)	0
ACAGTATCATGGACCGGTTTTCCCGGTAATCCGTATTTGCA (site ACAGTACCTTT)	0.00804
ACAGTATCATGGACCGGTTTTCCCGGTAATCCGTATTTGCA (site ACAGTAGCTCG)	0.00206
ACAGTATCATGGACCGGTTTTCCCGGTAATCCGTATTTGCA (site ACAGTAGCTTA)	0.00334
ACAGTATCATGGACCGGTTTTCCCGGTAATCCGTATTTGCA (site ACAGTAGCTTG)	0.142
ACAGTATCATGGACCGGTTTTCCCGGTAATCCGTATTTGCA (site ACAGTATCTAC)	0
ACAGTATCATGGACCGGTTTTCCCGGTAATCCGTATTTGCA (site ACAGTATCTAG)	1.81

From the supplement of paper PMC11208160
